Measured values from patent US20240376099A1, “COMPOUNDS AND COMPOSITIONS AS INHIBITORS OF ENDOSOMAL TOLL-LIKE RECEPTORS” (Novartis AG, priority 2016, published 2024).

Molecular target: T1, TLR9 (Homo sapiens, UniProt Q9NR96)
T1 construct: Fresh blood was collected from normal human donors; endogenous in cells; host or cells: human PBMCs from fresh donor blood
T1 sequence (Q9NR96 26-1032): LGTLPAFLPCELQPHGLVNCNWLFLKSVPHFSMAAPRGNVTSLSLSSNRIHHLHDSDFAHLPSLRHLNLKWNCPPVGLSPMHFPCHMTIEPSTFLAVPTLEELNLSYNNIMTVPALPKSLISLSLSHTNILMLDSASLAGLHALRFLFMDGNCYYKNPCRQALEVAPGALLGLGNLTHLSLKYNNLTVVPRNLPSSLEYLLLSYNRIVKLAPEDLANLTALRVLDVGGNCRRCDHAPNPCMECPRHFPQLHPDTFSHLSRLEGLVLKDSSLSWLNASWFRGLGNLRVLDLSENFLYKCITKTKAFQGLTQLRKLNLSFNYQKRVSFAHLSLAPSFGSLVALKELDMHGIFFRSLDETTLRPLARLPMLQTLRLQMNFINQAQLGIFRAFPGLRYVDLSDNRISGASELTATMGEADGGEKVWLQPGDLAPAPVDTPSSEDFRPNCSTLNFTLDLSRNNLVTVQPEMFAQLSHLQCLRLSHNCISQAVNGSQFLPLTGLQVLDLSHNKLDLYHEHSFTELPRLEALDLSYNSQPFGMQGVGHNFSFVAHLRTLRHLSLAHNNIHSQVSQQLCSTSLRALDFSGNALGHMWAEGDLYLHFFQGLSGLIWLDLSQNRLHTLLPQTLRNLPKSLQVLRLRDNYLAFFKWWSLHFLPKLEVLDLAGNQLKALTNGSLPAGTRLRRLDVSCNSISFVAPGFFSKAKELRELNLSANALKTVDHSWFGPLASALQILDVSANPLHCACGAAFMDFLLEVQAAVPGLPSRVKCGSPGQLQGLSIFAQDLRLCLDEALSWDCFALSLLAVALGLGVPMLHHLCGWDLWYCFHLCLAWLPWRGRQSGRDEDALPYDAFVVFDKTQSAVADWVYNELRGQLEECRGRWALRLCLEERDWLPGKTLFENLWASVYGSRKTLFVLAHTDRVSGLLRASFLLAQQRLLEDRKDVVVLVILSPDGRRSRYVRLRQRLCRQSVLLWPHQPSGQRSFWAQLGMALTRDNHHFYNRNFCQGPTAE
Assay: huPBMC TLR9 Antagonist IFNα Assay
Assay type: cell-based
Settings: human PBMCs stimulated with ODN2216 0.3 μM, 14-16 hrs; IFNα2b AlphaLISA read-out
In short: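 Human PBMCs from fresh donor blood (150,000 cells/well) stimulated 14–16 h at 37 °C with DOTAP-complexed ssRNA40 (final 1 μg/ml for TLR8, 10 μg/mL for TLR7) or ODN2216 (final 0.3 μM, TLR9), 0.25% DMSO, ten-point 1/3 compound dilutions. Supernatant IL-6 read by HTRF (TLR8); IFNα by IFNα2b AlphaLISA (TLR7/TLR9).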

| IC50 | SMILES |
| --- | --- |
| 299 nM | [2H]C([2H])([2H])N(CC(=O)NC12CCC(Cn3nc(C)c4c3CCN(c3cc(C)nc5c3cnn5C)C4)(CC1)CC2)C([2H])([2H])[2H] [compound 134, 2-(bis(trideuteromethyl)amino)-N-(4-((5-(1,6-dimethyl-1H-pyrazolo[3,4-b]pyridin-4-yl)-3-methyl-4,5,6,7-tetrahydro-1H-pyrazolo[4,3-c]pyridin-1-yl)methyl)bicyclo[2.2.2]octan-1-yl)acetamide] |
| 1280 nM | Cc1cc(N2CCc3c(c(C)nn3CC34CCC(NCC5(CO)COC5)(CC3)CC4)C2)c2cnn(C)c2n1 [compound 137, (3-(((4-((5-(1,6-dimethyl-1H-pyrazolo[3,4-b]pyridin-4-yl)-3-methyl-4,5,6,7-tetrahydro-1H-pyrazolo[4,3-c]pyridin-1-yl)methyl)bicyclo[2.2.2]octan-1-yl)amino)methyl)oxetan-3-yl)methanol] |
| 5170 nM | CCn1ncc2c(N3CCc4c(c(C)nn4CC45CCC(NC(=O)[C@@H]6COCCN6)(CC4)CC5)C3)cc(C)nc21 [compound 141, (S)-N-(4-((5-(1-ethyl-6-methyl-1H-pyrazolo[3,4-b]pyridin-4-yl)-3-methyl-4,5,6,7-tetrahydro-1H-pyrazolo[4,3-c]pyridin-1-yl)methyl)bicyclo[2.2.2]octan-1-yl)morpholine-3-carboxamide] |
| > 6590 nM | CNCCC(=O)NC12CCC(Cn3nc(C)c4c3CCN(c3cc(C)nc5c3cnn5C)C4)(CC1)CC2 [compound 142, N-(4-((5-(1,6-dimethyl-1H-pyrazolo[3,4-b]pyridin-4-yl)-3-methyl-4,5,6,7-tetrahydro-1H-pyrazolo[4,3-c]pyridin-1-yl)methyl)bicyclo[2.2.2]octan-1-yl)-3-(methylamino)propanamide] |
| 841 nM | Cc1cc(N2CCc3c(c(C)nn3CC34CCC(NC5CCC5)(CC3)CO4)C2)c2cnn(C)c2n1 [compound 143, N-cyclobutyl-1-((5-(1,6-dimethyl-1H-pyrazolo[3,4-b]pyridin-4-yl)-3-methyl-4,5,6,7-tetrahydro-1H-pyrazolo[4,3-c]pyridin-1-yl)methyl)-2-oxabicyclo[2.2.2]octan-4-amine] |
| 139 nM | Cc1nn(CC23CCC(NC4CCC4)(CC2)CC3)c2c1CN(c1ccnc(-c3ccccc3)c1)CC2 [compound 144, N-cyclobutyl-4-((3-methyl-5-(2-phenylpyridin-4-yl)-4,5,6,7-tetrahydro-1H-pyrazolo[4,3-c]pyridin-1-yl)methyl)bicyclo[2.2.2]octan-1-amine] |
| > 10000 nM | Cc1cc(N2CCc3c(c(C)nn3CC34CCC(NC(=O)OC(C)(C)C)(CC3)C4)C2)c2cnn(C)c2n1 [compound 148, tert-butyl (4-((5-(1,6-dimethyl-1H-pyrazolo[3,4-b]pyridin-4-yl)-3-methyl-4,5,6,7-tetrahydro-1H-pyrazolo[4,3-c]pyridin-1-yl)methyl)bicyclo[2.2.1]heptan-1-yl)carbamate] |
